This assay has as its system osteoclast formation. In words: Inhibition rate of furan derivatives versus osteoclast formation (TRAP staining). Format: cell-based, mice. The note with it: TRAP-positive multinucleated cells, untreated control set as 100%. On the procedure: First, bone marrow cells were isolated, as follow. After sacrificing 7-9 week female mice by cervical dislocation, femur and tibia were excised aseptically while removing attached soft tissues. After cutting both ends of long bones, 1 ml of an enzyme solution, containing 0.1% collagenase (Gibco), 0.05% trypsin and 0.5 mM EDTA (Gibco), was injected to the bone marrow cavity at one end using a syringe with a 26-guage needle, and bone marrow was then collected. After shaking the recovered bone marrow for 30 min, bone marrow cells were collected, and cultured in α-minimum essential medium (α-MEM) supplemented with 10% FBS for 24 hrs. Then, non-adherent cells were collected, which are osteoclast pregenitors, aliquotted onto culture plates at a density of 2×10^5 cells per well, and cultured for 8 days in α-MEM supplemented with 20 ng/ml of macrophage-colony stimulating factor (M-CSF, Peprotech, USA) and 30 ng/ml RANKL (Peprotech, USA). During the 8 days of culturing, the cells were treated with the Compound 1. Thereafter, osteoclast formation was investigated by fixing the cultured cells and then carrying out TRAP staining, as described in the following Experimental Example 2.2. In addition, resorption activity of osteoclasts was investigated by measuring the absorption area after removing osteoclasts in cultures in calcium phosphate-coated plates, as described in Experimental Example 2.3, below.
After cell culture, the adherent cells were washed with PBS, and TRAP staining was performed, as follows. After being fixed with citrate-acetate-formaldehyde for 5 min, the cells were incubated for 1 hr in acetate buffer (prewarmed at 37° C., pH 5.0) containing naphthol AS-BI phosphate, fast Garnet GBC and 7 mM tartrate buffer (pH 5.0). TRAP-positive multinucleated cells having 3 or more nuclei were considered as osteoclasts.
Osteoclast pregenitor cells were isolated, and their differentiation to mature osteoclasts was induced, according to the same method as in the Experimental Example 2-1, while treated with each of the furan derivatives of the present invention. According to the same method as in the Experimental Example 2-2, TRAP staining performed, and TRAP-positive multinucleated cells were counted. An inhibition rate of each furan derivative against osteoclast formation was expressed as percentage, wherein the number of stained cells in a control not treated the furan derivative was arbitrarily set as 100% (Tables 14 to 16).

Regarding `COC(=O)c1ccc(COc2ccc(I)cc2)o1` [Compound 79], the “Inhibition rate against osteoclast formation, %” value (“Inhibition rate … %” below) reads like this: (0.1 μM) 0%; (1 μM) 0%.

In the case of `COc1ccc(NC(=O)c2ccc(COc3ccc(F)cc3)o2)c([N+](=O)[O-])c1` [Compound 149], the “Inhibition rate … %” value (0.1 μM) came out at 0%.

`O=C(Nc1ccccc1F)c1ccc(COc2ccc(Cl)cc2)o1` [Compound 178]: the “Inhibition rate … %” value (0.1 μM) is 0% and the “Inhibition rate … %” value (1 μM) is on record as 0%.

Turning to `COC(=O)c1ccccc1NC(=O)c1ccc(COc2ccc(Cl)cc2Cl)o1` [Compound 167], the “Inhibition rate … %” value (0.1 μM) is listed as 0%.

As for `Cc1cc(OCc2ccc(C(=O)N3CCOCC3)o2)ccc1Cl` [Compound 132], the “Inhibition rate … %” value was 0% (0.1 μM) and 0% (1 μM).

For `COc1ccc(NC(=O)c2ccc(COc3ccccc3Cl)o2)cc1Cl` [Compound 142], the “Inhibition rate … %” value by setting is: (0.1 μM) 0%; (1 μM) 0%.

Consider `COC(=O)c1ccc(CNC(C)(C)C)o1` [Compound 91], for which the “Inhibition rate … %” value runs as follows: (0.1 μM) 0%; (1 μM) 0%.

Take `COC(=O)c1ccc(CNc2ccccc2)o1` [Compound 89]: the “Inhibition rate … %” value came out at 0% (0.1 μM) and 0% (1 μM).

With `COC(=O)c1ccc(COc2ccc(Cl)cc2)o1` [Compound 80], the “Inhibition rate … %” value (0.1 μM) was determined as 0% and the “Inhibition rate … %” value (1 μM) is listed as 0%.

In the case of `O=C(Nc1cc(C(F)(F)F)ccc1Cl)c1ccc(COc2ccc(Cl)cc2)o1` [Compound 181], the “Inhibition rate … %” value amounted to 0% (0.1 μM) and 0% (1 μM).

As to `CC(C)OC(=O)c1ccc(COc2cc(Cl)ccc2Cl)o1` [Compound 95], the “Inhibition rate … %” value by setting is: (0.1 μM) 0%; (1 μM) 0%; (10 μM) 0.97%.

Regarding `CC1CCN(C(=O)c2ccc(COc3cc(Cl)ccc3Cl)o2)CC1` [Compound 124], the “Inhibition rate … %” value is given as 0% (0.1 μM) and 0% (1 μM).

For the compound `O=C(Nc1cc(F)ccc1F)c1ccc(COc2cccc(Cl)c2)o1` [Compound 151], the “Inhibition rate … %” value was 0% (0.1 μM) and 0% (1 μM).

Regarding `COc1ccccc1OCc1ccc(C(=O)Nc2ccc(C)c(C)c2)o1` [Compound 175], the “Inhibition rate … %” value (0.1 μM) worked out at 0% and the “Inhibition rate … %” value (1 μM) is listed as 0%.

With `COc1cccc(F)c1CC(=O)OCc1ccc(C=O)o1` [Compound 41], the “Inhibition rate … %” value (0.1 μM) is recorded as 0%.

As to `CCC(C)NC(=O)c1ccc(COc2ccc(I)cc2)o1` (stereo not shown) [Compound 121], the “Inhibition rate … %” value (0.1 μM) turned out to be 0% and the “Inhibition rate … %” value (1 μM) came out at 0%.

As to `O=C(c1ccc(COc2ccccc2Br)o1)N1CCCCCC1` [Compound 128], the “Inhibition rate … %” value (1 μM) is 0%.

For the origin of these results see US20080221205A1, “FURAN DERIVATIVES FOR PREVENTING AND CURING OSTEOPOROSIS AND PHARMACEUTICAL COMPOSITIONS CONTAINING THE SAME” (priority 2002, published 2008).
